Results: patent publication US20130130175A1, “Compound for Photoacid Generator, Resist Composition Using the Same, and Pattern-Forming Method” (CENTRAL GLASS COMPANY, LIMITED, priority 2007, published 2013)
Where two headings read alike, the source gives them in different places.

Experiment: Solubility in propylene glycol methyl ether acetate
Format: physicochemical
Text: 1.0 g of sodium 2-(1′-adamantane)carbonyloxy-1,1-difluoroethanesulfonate synthesized in Synthesis Example 8 was weighed and added to 100 g of propylene glycol methyl ether acetate, followed by stirring.
1.0 g of sodium 2-(3′-hydroxy-1′-adamantane)carbonyloxy-1,1-difluoroethanesulfonate synthesized in Synthesis Example 11 was weighed and added to 100 g of propylene glycol methyl ether acetate, followed by stirring.

| Solubility (1.0 g added to 100 g of propylene glycol methyl ether acetate, stirring) | Structure (SMILES) | Solubility |
| --- | --- | --- |
| – | O=C(OCC(F)(F)S(=O)(=O)O)C12CC3CC(CC(C3)C1)C2 [Synthesis Example 8, triphenylsulfonium 2-(1′-adamantane)carbonyloxy-1,1-difluoroethanesulfonate] | completely dissolved |
| completely dissolved | O=C(OCC(F)(F)S(=O)(=O)O)C12CC3CC(CC(O)(C3)C1)C2 [Synthesis Example 11, triphenylsulfonium 2-(3′-hydroxy-1′-adamantane)carbonyloxy-1,1-difluoroethanesulfonate] | – |
